In patent US6875761B2 (Eisai Co., Ltd., priority 1997, dated 2005):
Counter-ions that a name gives are not always drawn.

Tests used:
[1] = molecular target: T1, serotonin 2 receptor (Rattus norvegicus, UniProt P14842); experiment: Binding test on [3H] ketanserin, cerebral cortex receptor fraction; design: species or system SD rats; details: 0.3 nM [3H] ketanserin, 37° C. 15 min, read-out: 5HT2
T1 construct: To the receptor fraction of the cerebral cortex were added a test compound and 0.3 nM of [^3H] ketanserin; from tissue; host or cells: rat cerebral cortex membrane fraction

[2] = molecular target: T2, serotonin 1A receptor (Rattus norvegicus, UniProt P19327); experiment: Binding test on [3H] 8-hydroxy-dipropylaminotetralin, hippocampus receptor fraction; design: species or system SD rats; details: rat hippocampus receptor fraction, 0.5 nM [3H] 8-OH-DPAT, room temperature 30 min; read-out: 5HT1
T2 construct: To the receptor fraction of the hippocampus were added a test compound and 0.5 nM of [^3H]; 8-hydroxy-dipropylaminotetralin; from tissue; host or cells: rat hippocampus membrane fraction
T2 sequence (P19327 1-422): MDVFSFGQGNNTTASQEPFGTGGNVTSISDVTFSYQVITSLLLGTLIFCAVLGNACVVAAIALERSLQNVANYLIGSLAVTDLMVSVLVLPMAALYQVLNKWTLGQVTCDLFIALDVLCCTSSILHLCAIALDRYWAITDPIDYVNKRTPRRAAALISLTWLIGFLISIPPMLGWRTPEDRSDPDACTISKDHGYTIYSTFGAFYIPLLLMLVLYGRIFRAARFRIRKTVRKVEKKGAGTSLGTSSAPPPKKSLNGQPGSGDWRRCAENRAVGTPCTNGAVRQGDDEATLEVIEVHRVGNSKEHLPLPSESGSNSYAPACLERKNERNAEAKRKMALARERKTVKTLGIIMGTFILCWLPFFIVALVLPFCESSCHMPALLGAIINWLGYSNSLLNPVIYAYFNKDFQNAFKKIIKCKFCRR

T1 sequence (P14842 whole entry): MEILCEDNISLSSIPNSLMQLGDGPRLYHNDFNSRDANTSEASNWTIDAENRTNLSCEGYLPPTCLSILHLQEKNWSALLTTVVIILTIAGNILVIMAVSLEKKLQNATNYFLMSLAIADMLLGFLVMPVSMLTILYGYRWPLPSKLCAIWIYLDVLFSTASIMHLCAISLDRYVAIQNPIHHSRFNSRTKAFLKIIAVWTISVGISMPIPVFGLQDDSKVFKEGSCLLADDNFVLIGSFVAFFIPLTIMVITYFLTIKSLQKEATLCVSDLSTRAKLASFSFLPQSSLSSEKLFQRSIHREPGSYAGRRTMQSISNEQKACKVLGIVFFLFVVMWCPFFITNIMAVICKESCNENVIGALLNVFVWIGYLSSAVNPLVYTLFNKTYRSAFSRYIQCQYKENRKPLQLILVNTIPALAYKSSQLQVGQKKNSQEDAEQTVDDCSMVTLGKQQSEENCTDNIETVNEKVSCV

| SMILES | Ki [1] [nM] | Ki [2] [nM] |
| --- | --- | --- |
| CCN1CCN(c2nc(C#Cc3ccc(OC)cc3)cc3ccccc23)CC1 [Example 178, 1-(1-Ethylpiperazin-4-Yl)-3-(4-Methoxyphenyl)Ethynylisoquinoline Dihydrochloride] | 0.2 | 56.4 |
| CCN1CCN(c2nc(C#CCCc3ccccc3)cc3ccccc23)CC1 [Example 182, 1-(1-Ethylpiperazin-4-Yl)-3-[4-Phenyl-1-Butynyl)Isoquinoline Dihydrochloride] | 15.9 | 10 |
| CCN1CCN(c2nc(C#CC(=O)c3ccccc3)cc3ccccc23)CC1 [Example 184, 1-(1-Ethylpiperazin-4-Yl)-3-Benzoylethynylisoquinoline Oxalate] | 122 | 30.9 |
| CCN1CCN(c2nc(C#Cc3ccc(OC)cc3OC)cc3ccccc23)CC1 [Example 185, 1-(1-Ethylpiperazin-4-Yl)-3-(2,4-Dimethoxyphenylethynyl)Isoquinoline Dihydrochloride] | 2 | 21.2 |
| CCN1CCN(c2nc(C#Cc3cncc(CCCOC)c3)cc3ccccc23)CC1 [Example 186, 1-(1-Ethylpiperazin-4-Yl)-3-[3-(3-Methoxypropyl)-5-Pyridyl]Ethynylisoquinoline] | 4.5 | 2.83 |
| CCN1CCN(c2nc(C#Cc3ncccc3OCCO)cc3ccccc23)CC1 [Example 188, 1-(1-Ethylpiperazin-4-Yl)-3-[3-(2-Hydroxyethoxy)-2-Pyridyl]Ethynylisoquinoline] | 107 | 4.47 |
| CCN1CCN(c2nc(/C=C/c3ccccc3)cc3ccccc23)CC1 [Example 189, 1-(1-Ethylpiperazin-4-Yl)-3-(Trans-2-Phenylethenyl)Isoquinoline Dihydrochloride] | 0.44 | 37.2 |
| CCN1CCN(c2nc(/C=C/c3ccc(OC)cc3)cc3ccccc23)CC1 [Example 190, 1-(1-Ethylpiperazin-4-Yl)-3-[Trans-2-(4-Methoxyphenyl)Ethenyl]Isoquinoline Dihydrochloride] | 3.85 | 35 |
| CCN1CCN(c2nc(/C=C\c3ccc(OC)cc3)cc3ccccc23)CC1 [Example 191, 1-(1-Ethylpiperazin-4-Yl)-3-[Cis-2-(4-Methoxyphenyl)Ethenyl]Isoquinoline Oxalate] | 0.93 | 13 |
| CCN1CCN(c2nc(C(C)=Cc3ccccc3)cc3ccccc23)CC1 [Example 192, 1-(1-Ethylpiperazin-4-Yl)-3-(Cis-1-Methyl-2-Phenylethenyl) Isoquinoline Oxalate] | 7.85 | 66.7 |
| CCN1CCN(c2nc(/C=C/c3ccccc3OCCO)cc3ccccc23)CC1 [Example 194, 1-(1-Ethylpiperazin-4-Yl)-3-[trans-2-(2-Hydroxyethoxyphenyl)Ethenyl]Isoquinoline Oxalate] | 33.7 | 11.2 |
| CCN1CCN(c2nc(/C=C/c3ccccc3OC)cc3ccccc23)CC1 [Example 195, 1-(1-Ethylpiperazin-4-Yl)-3-[Trans-2-(2-Methoxyphenyl)Ethenyl]Isoquinoline Oxalate] | 37.2 | 23 |
| CCN1CCN(c2nc(/C=C(\C)c3ccccc3)cc3ccccc23)CC1 [Example 196, 1-(1-Ethylpiperazin-4-Yl)-3-(Trans-2-Methyl-2-Phenylethen-1-Yl)Isoquinoline Oxalate] | 6.44 | 66.7 |
| CCN1CCN(c2nc(/C=C/c3ccccc3F)cc3ccccc23)CC1 [Example 197, 1-(1-Ethylpiperazin-4-Yl)-3-[Trans-2-(2-Fluorophenyl)Ethenyl]isoquinoline Oxalate] | 4.26 | 70.7 |
| CCN1CCN(c2nc(/C=C/c3ccc(OCCO)cc3)cc3ccccc23)CC1 [Example 198, 1-(1-Ethylpiperazin-4-Yl)-3-[(E)-4-(2-Hydroxyethoxy)Styryl]Isoquinoline Oxalate] | 9.08 | 45.5 |
| CCN1CCN(c2nc(/C=C/c3cccc(OCCO)c3)cc3ccccc23)CC1 [Example 199, 1-(1-Ethylpiperazin-4-Yl)-3-(Trans-2-(3-(2-Hydroxyethoxy)Phenyl]Ethenyl]isoquinoline Oxalate] | 3.8 | 3.27 |
| CCN1CCN(c2nc(/C=C/c3ccc(N4CCOCC4)nc3)cc3ccccc23)CC1 [Example 200, 3-[(E)-2-[2-(4-Morpholinyl)Pyridin-5-Yl]Ethenyl]-1-(4-Ethylpiperazin-1-Yl)Isoquinoline Hydrochloride] | 7.33 | 77.3 |

| SMILES | Ki [1] [nM] | Ki [2] [nM] |
| --- | --- | --- |
| CCN1CCN(c2nc(/C=C/c3ccc(S(C)(=O)=O)cc3)cc3ccccc23)CC1 [Example 201, 3-[(E)-2-(4-Methylsulfonylphenyl)Ethenyl]-1-(4-Ethylpiperazin-1-Yl)Isoquinoline Hydrochloride] | 2.96 | 35.9 |
| CCN1CCN(c2nc(/C=C/c3ccc(CS(C)(=O)=O)cc3)cc3ccccc23)CC1 [Example 203, 3-[(E)-2-(4-Methylsulfonylmethylphenyl)Ethenyl]-1-(4-Ethylpiperazin-1-Yl)Isoquinoline Oxalate] | 0.52 | 5.5 |
| CCN1CCN(c2nc(/C=C/c3cccc(N4CCOCC4)c3)cc3ccccc23)CC1 [Example 204, 3-{(E)-2-[3-(4-Morpholinyl)Phenyl]Ethenyl}-1-(4-Ethylpiperazin-1-Yl)Isoquinoline Oxalate] | 18.5 | 25.5 |
| CCN1CCN(c2nc(/C=C/c3ccc(N4CCOCC4)cc3)cc3ccccc23)CC1 [Example 205, 3-{(E)-2-[4-(4-Morpholinyl)Phenyl]Ethenyl}-1-(4-Ethylpiperazin-1-Yl)Isoquinoline Oxalate] | 0.98 | 33.1 |
| CCN1CCN(c2nc(/C=C(\C)c3ccc(N4CCOCC4)cc3)cc3ccccc23)CC1 [Example 206, 3-{(E)-2-Methyl-2-[4-(4-Morpholinyl)Phenyl]Ethenyl}-1-(4-Ethylpiperazin-1-Yl)Isoquinoline Oxalate] | 2.59 | 77.1 |
| CCN1CCN(c2nc(/C=C(\C)c3cccc(N4CCOCC4)c3)cc3ccccc23)CC1 [Example 207, 3-{(E)-2-Methyl-2-[3-(4-Morpholinyl)Phenyl]Ethenyl}-1-(4-Ethylpiperazin-1-Yl)Isoquinoline Oxalate] | 17.9 | 22.2 |
| CCN1CCN(c2nc(/C=C/c3ccccn3)cc3ccccc23)CC1 [Example 209, 1-(1-Ethylpiperazin-4-Yl)-3-[Trans-2-(2-Pyridyl)Ethenyl]Isoquinoline Trihydrochloride] | 2.35 | 3.28 |
| CCN1CCN(c2nc(/C=C/c3ccncc3)cc3ccccc23)CC1 [Example 210, 1-(1-Ethylpiperazin-4-Yl)-3-[Trans-2-(4-Pyridyl)Ethenyl]Isoquinoline] | 3.95 | 6.56 |
| CCN1CCN(c2nc(/C=C/Cc3ccccc3OC)cc3ccccc23)CC1 [Example 211] | 40.2 | 5.17 |
| CCN1CCN(c2nc(/C=C/c3ccc(N4CCOCC4)nn3)cc3ccccc23)CC1 [Example 214, 3-{(E)-2-[3-(4-Morpholinyl)Pyridazin-6-Yl]Ethenyl}-1-(4-Ethylpiperazin-1-Yl)Isoquinoline Oxalate] | 7.59 | 15.6 |
| CCN1CCN(c2nc(/C=C/c3cc(N4CCOCC4)ncn3)cc3ccccc23)CC1 [Example 215, 3{(E)-2-[4-(4-morpholinyl)pyrimidin-6-yl]ethenyl}-1-(4-ethylpiperazin-1-yl)isoquinoline oxalate] | 20.9 | 51.9 |
| CCN1CCN(c2nc(/C=C/c3cncc(N4CCOCC4)n3)cc3ccccc23)CC1 [Example 216, 3-{(E)-2-[2-(4-morpholinyl)pyrazin-6-yl]ethenyl}-1-(4-ethylpiperazin-1-yl)isoquinoline oxalate] | 15.5 | 16.6 |
| CCN1CCN(c2nc(CNc3ccc(OC)cc3)cc3ccccc23)CC1 [Example 219, 1-(1-ethylpiperazin-4-yl)-3-(4-methoxyanilinomethyl)isoquinoline oxalate] | 5.92 | 2.99 |
| CCN1CCN(c2nc(-c3ccc(OC)cc3)cc3cccc(F)c23)CC1 [Example 233, 1-(1-ethylpiperazin-4-yl)-8-fluoro-3-(4-methoxyphenyl)isoquinoline dihydrochloride] | 1.97 | 200 |
| CCN1CCN(c2nc(-c3ccc(OCCO)cc3)cc3cccc(F)c23)CC1 [Example 234, 1-(1-ethylpiperazin-4-yl)-8-fluoro-3-[4-(2-hydroxyethoxy)phenyl]isoquinoline dihydrochloride] | 1.11 | 129 |
| CCS(=O)(=O)NCc1ccc(-c2cc3ccccc3c(N3CCN(CCO)CC3)n2)cc1 [Example 243, 3-(4-ethylsulfonylaminomethylphenyl)-1-[4-(2-hydroxyethyl)piperazin-1-yl]isoquinoline Hydrochloride] | 6.7 | 13 |
| CCN1CCN(c2nc(-c3ccc(OC)cc3)cc3cccnc23)CC1 [Example 244, 8-(4-ethylpiperazin-1-yl)-6-(4-methoxyphenyl)pyrido[2,3-c]pyridine Hydrochloride] | 78.6 | 27.1 |
